Values quoted from earlier work, collected in patent US20080160064A1, “DEVICES AND METHODS FOR […]” (priority 2006, published 2008).

Target: hemoglobin (Homo sapiens, UniProt P68871+P69905)
Details: higher affinity than oxygen

Sequence of hemoglobin (P69905 2-142 limits assumed): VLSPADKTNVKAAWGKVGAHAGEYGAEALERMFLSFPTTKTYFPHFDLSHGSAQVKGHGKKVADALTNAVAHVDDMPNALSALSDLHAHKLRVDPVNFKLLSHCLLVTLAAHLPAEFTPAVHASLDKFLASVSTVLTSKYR
Sequence of hemoglobin (P68871 2-147 limits assumed): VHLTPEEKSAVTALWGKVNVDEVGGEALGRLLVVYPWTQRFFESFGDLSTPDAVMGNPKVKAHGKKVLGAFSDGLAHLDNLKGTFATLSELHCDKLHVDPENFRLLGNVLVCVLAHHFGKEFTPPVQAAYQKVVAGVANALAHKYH

Question: With `[C-]#[O+]` [CO, Carbon monoxide] as the compound, how does the “affinity for hemoglobin relative to oxygen” value read?
Answer: ~200 ×
